From patent EP4371976B1, “IONIZABLE LIPIDS AND LIPID NANOPARTICLES CONTAINING THEREOF” (Certest Biotec, S.L., priority 2022, dated 2024)

Columns and labels:
[1] = test system: Female BALB/c mice; assay: Firefly luciferase expression (total flux, IVIS imaging) in mice after injection of mRNA-loaded LNPs; assay type: in vivo; settings: for Total Flux: LNP 50:10:38.5:1.5
Procedure: For in vivo administration, mRNA comprising in the 5' to 3' direction a sequence encoding for luciferase of SEQ ID NO:1, was encapsulated into LNPs following the procedure described in Hassett, K. J. et al., "Optimization of Lipid Nanoparticles for Intramuscular Administration of mRNA Vaccines", 2019, Mol. Ther. Nucleic Acid, vol. 15, pp. 1-11. Briefly, the purified mRNAs were first diluted in sodium citrate buffer at pH=4 at a final concentration of 266 µg/ml. Separately, a mixture of the ionizable lipid of the invention:DSPC (Merk 850365P):cholesterol (Sigma C3045):DMG-PEG2000 (Cayman 33945-1) were dissolved into ethanol at the respective molar percentages of 50:10:38.5:1.5, and with a lipid-nitrogen-to-phosphate ratio (N:P) ratio of 5,5:1.
The mRNA aqueous solution was then carefully added to the ethanol solution, and the resulted solution was homogenized by pipetting up and down for 4-5 times. The resulting LNPs were immediately diluted 1:1 with Tris buffer and dialyzed overnight against Tris buffer containing 15% sucrose. The resulting LNP solution was then collected, and the encapsulated mRNA was assessed by Quant-IT® Ribogreen (Invitrogen R11490) following the manufacturer's instructions.
Female BALB/c mice (Charles River Laboratories), 8-10-week-old, weighting 18-23 g, were acclimatized to new conditions upon arrival to experimental facilities for 3-7 days. Housing conditions were room temperature 20-24 °C, humidity 50-70 %, and light intensity 60 lux with a light-dark cycle of 12 hours.
For Firefly Luciferase activity measurement in mice, LNPs produced as indicated above (ionizable lipid:helper lipid: sterol:PEG-modified lipid → 50:10:38.5:1.5) and containing 5 µg of the indicated mRNA in 50 µl final volume, were injected intramuscularly.
From 4 to 72 hours after RNA-LPN inoculation mice were anaesthetized by inhalation with 4% of isoflurane using a vaporizer. The maintenance of the anaesthesia was performed at 1.5% of isoflurane. Then, D-luciferin (Quimigen, 12507) was injected intraperitoneally at 150 mg/kg, normally ~200 µL of the stock at 15 mg/mL in PBS for a 20 g mouse. Luciferase images were acquired 10 minutes after luciferin inoculation using the IVIS Lumina XRMS Imaging System following manufacturer's instructions.

[2] = RNA encapsulation efficiency of LNPs by Quant-IT Ribogreen; assay type: physicochemical; settings: for Encaps. efficiency (%): LNPs with luciferase mRNA, ionizable lipid:non-cationic lipid:sterol:PEG-modified lipid 50:10:38.5:1.5; for Encaps. efficiency: Table 8, LNP 50:10:38.5:1.5, luciferase mRNA
How it was run: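 LNPs formed by mixing aqueous mRNA into ethanol lipid solution, diluted 1:1 in Tris, dialysed overnight against Tris with 15% sucrose. Encapsulated mRNA measured by Ribogreen fluorescence per kit protocol; LNPs adjusted to 100 µg/ml final mRNA.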

[3] = Size distribution, polydispersity and Z-potential of LNPs by dynamic light scattering (Malvern Zetasizer); assay type: physicochemical
Procedure: The LNP solution was then adjusted to a final concentration of mRNA of 100 µg/ml. Size distribution, polydispersity and Z-potential were measured by dynamic light scattering (DLS) using Malvern Zetasizer Advance Lab Blue Label. RNA encapsulation was assessed by Quant-IT® Ribogreen following the manufacturer's instructions.

[4] = Apparent pKa of LNPs comprising the ionizable lipid (Table 6); settings: standard formulation 50:10:38.5:1.5
[5] = test system: HEK293T cells; settings: reported by Molla et al., cited from earlier work
[6] = Table 8, mice, intramuscular, 5 µg luciferase mRNA in 50 µl
[7] = percentage of RNA entrapped in the LNP
[8] = LNPs, standard formulation 50:10:38.5:1.5, DLS
[9] = Table 10, VC-LC-0431:DOPE:Cholesterol:DMG-PEG2000 50:10:38.5:1.5

SMILES | Total Flux [1, 6] | Encaps. efficiency (%) [2, 7] | Encaps. efficiency [2] | P.D.I. [3, 8] | Particle size/ Ø (nm) [3, 8] | Z Potential (± D.E.) [mV] [3, 8] | Apparent pKa [4] | Total flux (p·s^-1) ([1]; Table 10, mice, VC-LC-0431:DOPE:Cholesterol:DMG-PEG2000 50:10:38.5:1.5) | Encapsulation efficiency (%) [2, 9] | P.D.I. [3, 9] | Particle size/ Ø (nm) [3, 9] | Z Potential (± D.E.) [mV] [3, 9] | Total Flux ([1]; Table 6, in vivo after injection) | encapsulation efficiency ([2]; Table 6, percentage of RNA entrapped in the LNP, LNP 50:10:38.5:1.5) | transfection (luminescence) in vivo ([1]; Figure 2, intramuscular injection, LNP 50:10:38.5:1.5 encapsulating luciferase mRNA) | transfection efficiency ([5]; HEK293T cells, without addition of helper lipids) | toxicity ([5]; liposomes, in vitro)
CCCCCCCCCCC(CCCCCCCC)C(=O)NC(CCSCCC(=O)OCC(CCCCCC)CCCCCCCC)C(=O)NCC1CCN(C)CC1 (stereo not drawn) [VC-LC-0508] | 1.7E+08 p·s^-1 | 91.49% | 91.49% | 0.13 | 152.6 nm | -2.43 mV | 7.48 |  |  |  |  |  |  |  |  |  | 
CCCCCCCCCCCCOC(=O)CCSCCC(C(=O)NC1CCN(C)CC1)C(=O)OC(CCCCCCCC)CCCCCCCC (stereo not drawn) [VC-LC-0440] | 2.42E+07 p·s^-1 | 76.52% | 76.5% | 0.10 | 167.4 nm | -3.61 mV | 6.75 |  |  |  |  |  |  |  |  |  | 
CCCCCCCCC(CCCCCC)COC(=O)CCSCCC(NC(=O)C(CCCCCC)CCCCCCCC)C(=O)NC1CCN(C)CC1 (stereo not drawn) [VC-LC-0431] | 9.92E+07 p·s^-1 | 60.4% | 60.4% | 0.11 | 196.6 nm | -0.28 mV | 5.77 | 9.92E+07 p·s^-1 | 60.4% | 0.114 | 196,6 nm | -0.281 mV |  |  |  |  | 
CCCCCCCCCCC(CCCCCCCC)C(=O)NC(CCSCCC(=O)OCCCCCCCC(C)C)C(=O)NC1CCN(C)CC1 (stereo not drawn) [VC-LC-0558] | 7.9E07 p·s^-1 | 50.58% | 50.6% | 0.11 | 155.2 nm | -6.62 mV | 5.95 |  |  |  |  |  |  |  |  |  | 
CCCCCCCCOC(=O)CCSCC(CC(=O)NCCCN1CCOCC1)C(=O)OC(CCCCCCCC)CCCCCCCC (stereo not drawn) [VC-LC-0551] | 1.1E+08 p·s^-1 | 29.06% | 29.06% | 0.15 | 155.3 nm | -11.66 mV | 6.51 |  |  |  |  |  |  |  |  |  | 
CCCCCCCCC(CCCCCCCC)OC(=O)C(CSCCC(=O)OCCCCCCCC(C)C)CC(=O)NCCCn1ccnc1 (stereo not drawn) [VC-LC-0296] | 4.7E+07 p·s^-1 | 48.51% | 48.5% | 0.13 | 175.8 nm | -7.19 mV | 5.62 |  |  |  |  |  |  |  |  |  | 
CCCCCCCCCCC(CCCCCCCC)C(=O)NC(CCSCCC(=O)OCCCCCC(C)C)C(=O)NCC1CCN(C)CC1 (stereo not drawn) [VC-LC-0515] | 3.0E+07 p·s^-1 | 98.61% | 98.61% | 0.12 | 141.7 nm | 1.90 mV | 7.26 |  |  |  |  |  |  |  |  |  | 
CCCCCCCCC(CCCCCC)COC(=O)CCSCCC(NC(=O)C(CCCCCC)CCCCCCCC)C(=O)NCC1CCN(C)CC1 (stereo not drawn) [VC-LC-0491] | 2.37E+07 p·s^-1 | 72.06% | 72.1% | 0.17 | 160.8 nm | -3.40 mV | 7.07 |  |  |  |  |  |  |  |  |  | 
CCCCCCCCOC(=O)CCSCC(CC(=O)NCCCn1ccnc1)C(=O)OC(CCCCCCCC)CCCCCCCC (stereo not drawn) [VC-LC-0307] | 1.47E+08 p·s^-1 | 43.89% | 43.9% | 0.14 | 178 nm | -15.15 mV | 6.11 |  |  |  |  |  |  |  |  |  | 
CCCCCCCCC(CCCCCCCC)OC(=O)C(CSCCC(=O)OCCCCCC)CC(=O)NCCCN1CCOCC1 (stereo not drawn) [VC-LC-0550] |  | 26.96% |  | 0.16 | 173.7 nm | -14.52 mV | 6.53 |  |  |  |  |  | 3,4·10^7 p·s^-1 | 26.96% |  |  | 
CCCCCCCC/C=C\CCCCCCCCC(=O)CC(CCSSCCCCCCCCCCCC)C(=O)NCCN1CCN(C)CC1 (stereo not drawn) [VC-LC-0588] |  |  |  |  |  |  |  |  |  |  |  |  |  |  | no transfection | about 95% | low toxicity
CCCCCCCCC(CCCCCC)COC(=O)CCSCCC(C(=O)NC1CCN(C)CC1)C(=O)OC(CCCCCCCC)CCCCCCCC (stereo not drawn) [VC-LC-0439] | 2.39E+07 p·s^-1 | 91.14% | 91.1% | 0.1 | 144.8 nm | -6.48 mV |  |  |  |  |  |  |  |  |  |  | 
CCCCCCCCCCCCOC(=O)CCSCC(CC(=O)NCCCn1ccnc1)C(=O)OC(CCCCCCCC)CCCCCCCC (stereo not drawn) [VC-LC-0298] | 7.6E+07 p·s^-1 | 59.92% | 59.92% | 0.16 | 190.5 nm | -13.51 mV | 6.06 |  |  |  |  |  |  |  |  |  | 
CCCCCCCCC(CCCCCCCC)OC(=O)C(CSCCC(=O)OCC(CC)CCCC)CC(=O)NCCCn1ccnc1 (stereo not drawn) [VC-LC-0297] | 2.3E+07 p·s^-1 | 46.94% | 46.9% | 0.18 | 193.3 nm | -11.77 mV | 5.80 |  |  |  |  |  |  |  |  |  | 
CCCCCCCC/C=C\CCCCCCCCOC(=O)CCSCC(CC(=O)NC1CCN(C)CC1)C(=O)OCC(CCCCCC)CCCCCCCC (stereo not drawn) [VC-LC-0539] | 3.6E+07 p·s^-1 | 85.33% | 85.3% | 0.13 | 176.7 nm | -1.24 mV | 6.90 |  |  |  |  |  |  |  |  |  | 
